Experimental data taken from a melting point compilation (Tetko et al.).

Compound	melting point [°C]
CSc1nnc(C(C)(C)C)c(=O)n1N	126
Cn1nnc2cc(C(=O)Cl)ccc21	125 to 126
SCCCCS	-53.9
CCCCCCCCC(NC(=O)OCC1c2ccccc2-c2ccccc21)C(=O)O (stereo not given)	143
O=C(C=Cc1ccc(OC(=O)c2ccco2)cc1)c1ccccc1	115
N#CC(C#N)=Cc1ccco1	70 to 74
N#Cc1ccc(NN)c(Cl)c1	127 to 128
O=C(O)c1cncc(-c2ccccc2)c1	260
NC(=S)c1ccc(Cl)cc1Cl	135 to 136
NC(=S)CS(=O)(=O)Cc1ccco1	128 to 130
CCC(=O)Nc1ccccc1	106
COC(=O)CCC(C)C1CCC2C3CCC4CC(=O)CCC4(C)C3CCC12C (stereo not given)	116 to 118
CCCC(=O)Nc1ccccc1	97
NC(COc1ccccc1)=NO	93 to 94
CCCCCCCCCCCCCCCCCCCCC(=O)O	74 to 76
O=[N+]([O-])c1cccc2c(/C=N\c3ccccc3)cccc12	83 to 84
N#Cc1ccnc(Br)c1	72
CCCCCC#CC(=O)O	4
Cc1nc2ccccc2n1CCc1nnc(S)n1N=Cc1ccccc1Cl	250
O=C(O)c1ccccc1CS(=O)c1ccccc1 (stereo not given)	185 to 187
CC(=O)OC[C@H]1O[C@@H](Oc2ccc(C)cc2)[C@H](OC(C)=O)[C@@H](OC(C)=O)[C@@H]1OC(C)=O	125 to 126
O=[N+]([O-])c1c(Cl)c(Cl)cc(Cl)c1Cl	100

Compound	melting point [°C]
Nc1ccc(C(=O)c2ccccc2)cc1[N+](=O)[O-]	140 to 143
OC[C@H]1O[C@H](CO)[C@@H](O)[C@@H]1O	100 to 103
CC(=O)c1ccc(S(C)(=O)=O)cc1	129 to 131
CC1(C)CON(Cc2ccccc2Cl)C1=O	33.9
c1n[nH]c2c1CSC2	132 to 133
CCOC(=O)c1c(-c2ccccc2)csc1NC(=O)CCl	99 to 100
OCC1CCCCC1	-43
CCCCCCCCC=CCCCCCCCC(=O)O	45
C1CC2CCCC(C1)C2	146
Cc1ccc(C(c2ccc(C)o2)c2cc(Br)cc(C)c2O)o1	198 to 199
Sc1nc(S)nc(S)n1	300
Nc1ccccc1-c1c(-c2ccccc2)noc1-c1ccccc1	185
O=C(Oc1cc(Cl)cc(Cl)c1)c1ccc(C(=O)Oc2cc(Cl)cc(Cl)c2)cc1	230
N#CC1=C(N)Oc2c(c(C(F)(F)F)nn2-c2ccccc2)C1c1ccc(O)cc1 (stereo not given)	218
Cc1cnc(Cl)c([N+](=O)[O-])c1	46 to 50
O=C1/C(=C\c2ccc(Cl)cc2)SC(=S)N1CN1CCOCC1	149
O=C1C=C(NCc2ccc([N+](=O)[O-])cc2)C(=O)c2ccccc21	235
CCOC(=O)c1[nH]c(C)c(S(=O)(=O)Cl)c1C	150
Cc1ccc2ncccc2c1	-22
CCCCCCC(=O)CCCCC	10
CC(C)c1cc(C(=O)O)c(O)c(C(C)C)c1	117
C1COC1	-97

Compound	melting point [°C]
c1ccnnc1	-8
FC(F)(F)C(F)(Cl)C(F)(Cl)C(F)(F)F (stereo not given)	-68
O=C(O)COc1ccc(CO)cc1	112
CCOc1ccccc1N	-4
Clc1cccc2c(C#Cc3ccccc3)c3cccc(Cl)c3c(C#Cc3ccccc3)c12	167 to 170
COC(=O)c1cc(C=O)oc1C	83
C=CC(Cl)(Cl)Cl	-30
Cc1c2cccc(-c3ccccc3)c2cc2c(-c3ccccc3)cccc12	177
CN(C)C(=O)c1ccccc1	44
Oc1ccnc(O)c1	278
CCOC(=O)C1=C(C)Nc2ccccc2S1	143
Clc1cc2c(oc3c(Cl)c(Cl)c(Cl)c(Cl)c32)c(Cl)c1Cl	233
O=Cc1ccc(N2CCCC2=O)cc1	121 to 122
CSc1nn(CO)c(=S)s1	72 to 74
c1c2c(cc3c1CCCC3)CCCC2	78
CC(=O)Nc1ccc(S(N)(=O)=O)cc1	220
Cc1ccc(O)c(C(O)c2ccc(Br)cc2)c1 (stereo not given)	107
C[Si](C)(c1ccccc1)[Si](C)(C)c1ccccc1	33 to 38
C=CCN(CC=C)C(=O)C(Cl)Cl	5.5
OCC1OC(n2cnc3c(NCc4ccco4)ncnc32)C(O)C1O (stereo not given)	152 to 154
CCCCC#CCCCC	-73
